Source: PubChem BioAssay (NCI)
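These data come from cells grown in 96-well plates and exposed to compound for 48 hours at five concentrations. Here, GI50 denotes the concentration required for 50% inhibition of growth. TGI: total growth inhibition.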

Legend:
Assay in all cases: DTP human tumour cell line panel, 48 h
SF-539 CNS = test system: SF-539 CNS
LOX IMVI melanoma = test system: LOX IMVI melanoma
SF-295 CNS = test system: SF-295 CNS
XF 498 CNS = test system: XF 498 CNS
CCRF-CEM leukemia = test system: CCRF-CEM leukemia
HOP-62 NSCLC = test system: HOP-62 NSCLC
UACC-257 melanoma = test system: UACC-257 melanoma
OVCAR-3 ovarian = test system: OVCAR-3 ovarian
IGROV1 ovarian = test system: IGROV1 ovarian
CAKI-1 renal = test system: CAKI-1 renal
ACHN renal = test system: ACHN renal
COLO 205 colon = test system: COLO 205 colon
HT29 colon = test system: HT29 colon
SK-MEL-2 melanoma = test system: SK-MEL-2 melanoma
SK-MEL-5 melanoma = test system: SK-MEL-5 melanoma
M19-MEL melanoma = test system: M19-MEL melanoma
M14 melanoma = test system: M14 melanoma
SNB-78 CNS = test system: SNB-78 CNS
NCI-H460 lung = test system: NCI-H460 lung
LXFL 529 NSCLC = test system: LXFL 529 NSCLC
SK-OV-3 ovarian = test system: SK-OV-3 ovarian
A549 NSCLC = test system: A549 NSCLC
K-562 leukemia = test system: K-562 leukemia
MOLT-4 leukemia = test system: MOLT-4 leukemia
RPMI-8226 leukemia = test system: RPMI-8226 leukemia
HOP-92 NSCLC = test system: HOP-92 NSCLC
KM12 colon = test system: KM12 colon
SW-620 colon = test system: SW-620 colon
NCI-H522 lung = test system: NCI-H522 lung
EKVX NSCLC = test system: EKVX NSCLC
NCI-H23 lung = test system: NCI-H23 lung
DMS 114 small cell lung = test system: DMS 114 small cell lung
SN12C renal = test system: SN12C renal
OVCAR-4 ovarian = test system: OVCAR-4 ovarian
SNB-19 CNS = test system: SNB-19 CNS
RXF-631 renal = test system: RXF-631 renal
KM20L2 colon = test system: KM20L2 colon
DLD-1 colon = test system: DLD-1 colon
RXF 393 renal = test system: RXF 393 renal
HCT-15 colon = test system: HCT-15 colon
HL-60(TB) leukemia = test system: HL-60(TB) leukemia
OVCAR-8 ovarian = test system: OVCAR-8 ovarian
SK-MEL-28 melanoma = test system: SK-MEL-28 melanoma
DMS 273 small cell lung = test system: DMS 273 small cell lung
UO-31 renal = test system: UO-31 renal
OVCAR-5 ovarian = test system: OVCAR-5 ovarian
NCI-H226 lung = test system: NCI-H226 lung
HCT-116 colon = test system: HCT-116 colon
SNB-75 CNS = test system: SNB-75 CNS
HOP-18 NSCLC = test system: HOP-18 NSCLC
U251 CNS = test system: U251 CNS
SF-268 CNS = test system: SF-268 CNS
MALME-3M melanoma = test system: MALME-3M melanoma
TK-10 renal = test system: TK-10 renal
HCC-2998 colon = test system: HCC-2998 colon
UACC-62 melanoma = test system: UACC-62 melanoma
786-0 renal = test system: 786-0 renal
A498 renal = test system: A498 renal

C[n+]1[se]c2ccccc2c1Cl
TGI (SF-539 CNS): 37.1 µM | TGI (LOX IMVI melanoma): 39.7 µM | TGI (SF-295 CNS): 50.9 µM | TGI (XF 498 CNS): > 54.9 µM | TGI (CCRF-CEM leukemia): 21.5 µM | TGI (HOP-62 NSCLC): > 58.8 µM | TGI (UACC-257 melanoma): > 46.9 µM | TGI (OVCAR-3 ovarian): > 71.9 µM | TGI (IGROV1 ovarian): > 77.5 µM | TGI (CAKI-1 renal): > 56.2 µM | TGI (ACHN renal): > 70.7 µM | TGI (COLO 205 colon): > 59.8 µM | TGI (HT29 colon): > 76.3 µM | TGI (SK-MEL-2 melanoma): 28.1 µM | TGI (SK-MEL-5 melanoma): 31.1 µM | TGI (M19-MEL melanoma): 27.3 µM | TGI (M14 melanoma): 27.8 µM | TGI (SNB-78 CNS): > 72.8 µM | TGI (NCI-H460 lung): > 100 µM | TGI (LXFL 529 NSCLC): > 100 µM | TGI (SK-OV-3 ovarian): > 100 µM | TGI (A549 NSCLC): > 94 µM | TGI (K-562 leukemia): > 70.7 µM | TGI (MOLT-4 leukemia): > 63.6 µM | TGI (RPMI-8226 leukemia): > 67 µM | TGI (HOP-92 NSCLC): 20.2 µM | TGI (KM12 colon): > 56.7 µM | TGI (SW-620 colon): 42.6 µM | TGI (NCI-H522 lung): 42.7 µM | TGI (EKVX NSCLC): 52.1 µM | TGI (NCI-H23 lung): 45.8 µM | TGI (DMS 114 small cell lung): > 70 µM | TGI (SN12C renal): 23.7 µM | TGI (OVCAR-4 ovarian): > 60 µM | TGI (SNB-19 CNS): > 100 µM | TGI (RXF-631 renal): > 67.2 µM | TGI (KM20L2 colon): > 75.7 µM | TGI (DLD-1 colon): > 59.7 µM | TGI (RXF 393 renal): 50.4 µM | TGI (HCT-15 colon): > 67.3 µM | TGI (HL-60(TB) leukemia): 19.6 µM | TGI (OVCAR-8 ovarian): > 84.7 µM | TGI (SK-MEL-28 melanoma): > 54.7 µM | TGI (DMS 273 small cell lung): 41.5 µM | TGI (UO-31 renal): > 63.5 µM | TGI (OVCAR-5 ovarian): > 79.9 µM | TGI (NCI-H226 lung): > 71.1 µM | TGI (HCT-116 colon): 31 µM | TGI (SNB-75 CNS): 45.8 µM | TGI (HOP-18 NSCLC): 52.9 µM | TGI (U251 CNS): > 74.4 µM | TGI (SF-268 CNS): 52.4 µM | TGI (MALME-3M melanoma): > 56.9 µM | TGI (TK-10 renal): > 63 µM | TGI (HCC-2998 colon): > 81.9 µM | TGI (UACC-62 melanoma): 33.2 µM | TGI (786-0 renal): > 59.2 µM | TGI (A498 renal): > 100 µM

CCO.CCO.Oc1ccc(Nc2ncns2)cc1.Oc1ccc(Nc2ncns2)cc1.[Ti]
GI50 (SF-539 CNS): 34.5 µM | TGI (SF-539 CNS): > 100 µM | GI50 (LOX IMVI melanoma): 30.1 µM | TGI (LOX IMVI melanoma): > 100 µM | GI50 (SF-295 CNS): 69.9 µM | TGI (SF-295 CNS): > 100 µM | GI50 (XF 498 CNS): 44.9 µM | TGI (XF 498 CNS): > 100 µM | GI50 (CCRF-CEM leukemia): 27.7 µM | TGI (CCRF-CEM leukemia): > 100 µM | GI50 (HOP-62 NSCLC): 71.5 µM | TGI (HOP-62 NSCLC): > 100 µM | GI50 (UACC-257 melanoma): 30.2 µM | TGI (UACC-257 melanoma): > 100 µM | GI50 (OVCAR-3 ovarian): 55.8 µM | TGI (OVCAR-3 ovarian): > 100 µM | GI50 (IGROV1 ovarian): 93 µM | TGI (IGROV1 ovarian): > 100 µM | GI50 (CAKI-1 renal): 47.5 µM | TGI (CAKI-1 renal): > 100 µM | GI50 (ACHN renal): 33.2 µM | TGI (ACHN renal): > 100 µM | GI50 (COLO 205 colon): 21.5 µM | TGI (COLO 205 colon): 47.4 µM | GI50 (HT29 colon): 31.5 µM | TGI (HT29 colon): > 100 µM | GI50 (SK-MEL-2 melanoma): 27.6 µM | TGI (SK-MEL-2 melanoma): 70.7 µM | GI50 (SK-MEL-5 melanoma): 23.4 µM | TGI (SK-MEL-5 melanoma): 72.3 µM | GI50 (M19-MEL melanoma): 44.5 µM | TGI (M19-MEL melanoma): > 100 µM | GI50 (M14 melanoma): 45.4 µM | TGI (M14 melanoma): > 100 µM | GI50 (SNB-78 CNS): 41.6 µM | TGI (SNB-78 CNS): > 100 µM | GI50 (NCI-H460 lung): 26.7 µM | TGI (NCI-H460 lung): 87.7 µM | GI50 (LXFL 529 NSCLC): 24.7 µM | TGI (LXFL 529 NSCLC): > 100 µM | GI50 (SK-OV-3 ovarian): > 100 µM | TGI (SK-OV-3 ovarian): > 100 µM | GI50 (A549 NSCLC): 43.6 µM | TGI (A549 NSCLC): > 100 µM | GI50 (K-562 leukemia): 29 µM | TGI (K-562 leukemia): > 100 µM | GI50 (MOLT-4 leukemia): 27.5 µM | TGI (MOLT-4 leukemia): > 100 µM | GI50 (RPMI-8226 leukemia): 31.3 µM | TGI (RPMI-8226 leukemia): > 100 µM | GI50 (KM12 colon): 47.5 µM | TGI (KM12 colon): > 100 µM | GI50 (SW-620 colon): 39.5 µM | TGI (SW-620 colon): > 100 µM | GI50 (NCI-H522 lung): 13.6 µM | TGI (NCI-H522 lung): 28.3 µM | GI50 (EKVX NSCLC): 34.6 µM | TGI (EKVX NSCLC): 87.9 µM | GI50 (NCI-H23 lung): 27.6 µM | TGI (NCI-H23 lung): 91.8 µM | GI50 (DMS 114 small cell lung): 21.6 µM | TGI (DMS 114 small cell lung): 67.5 µM | GI50 (SN12C renal): 67 µM | TGI (SN12C renal): > 100 µM | GI50 (OVCAR-4 ovarian): 38.8 µM | TGI (OVCAR-4 ovarian): > 100 µM | GI50 (SNB-19 CNS): 64.6 µM | TGI (SNB-19 CNS): > 100 µM | GI50 (RXF-631 renal): 33 µM | TGI (RXF-631 renal): > 100 µM | GI50 (KM20L2 colon): > 100 µM | TGI (KM20L2 colon): > 100 µM | GI50 (DLD-1 colon): 36.5 µM | TGI (DLD-1 colon): > 100 µM | GI50 (HCT-15 colon): 48.1 µM | TGI (HCT-15 colon): > 100 µM | GI50 (HL-60(TB) leukemia): 24.7 µM | TGI (HL-60(TB) leukemia): 74.1 µM | GI50 (OVCAR-8 ovarian): 39.7 µM | TGI (OVCAR-8 ovarian): > 100 µM | GI50 (SK-MEL-28 melanoma): 53 µM | TGI (SK-MEL-28 melanoma): > 100 µM | GI50 (DMS 273 small cell lung): 25.3 µM | TGI (DMS 273 small cell lung): 80.7 µM | GI50 (UO-31 renal): 41.6 µM | TGI (UO-31 renal): > 100 µM | GI50 (OVCAR-5 ovarian): > 100 µM | TGI (OVCAR-5 ovarian): > 100 µM | GI50 (NCI-H226 lung): > 100 µM | TGI (NCI-H226 lung): > 100 µM | GI50 (HCT-116 colon): 30.2 µM | TGI (HCT-116 colon): > 100 µM | GI50 (SNB-75 CNS): 15.8 µM | TGI (SNB-75 CNS): 69.1 µM | GI50 (HOP-18 NSCLC): > 100 µM | TGI (HOP-18 NSCLC): > 100 µM | GI50 (SF-268 CNS): 36.2 µM | TGI (SF-268 CNS): > 100 µM | GI50 (MALME-3M melanoma): 38.3 µM | TGI (MALME-3M melanoma): > 100 µM | GI50 (TK-10 renal): 50.8 µM | TGI (TK-10 renal): > 100 µM | GI50 (HCC-2998 colon): 53.1 µM | TGI (HCC-2998 colon): > 100 µM | GI50 (UACC-62 melanoma): 45.9 µM | TGI (UACC-62 melanoma): > 100 µM | GI50 (786-0 renal): 49.6 µM | TGI (786-0 renal): > 100 µM | GI50 (A498 renal): 28.6 µM | TGI (A498 renal): 74.9 µM
